Publication PMC3927474, “Whole body synthesis rates of DHA from α-linolenic acid are greater than brain DHA accretion and uptake rates in adult rats” (Journal of Lipid Research, 2014)

Experiments:
Format in all cases: in vivo, rat
[1] = Body weight and food intake, balance study; settings: 15 wk diet
Experimental: The remaining pups were weaned, singly housed, continued on the diet of their respective dam for 15 weeks, and were allocated to either the balance study (n = 11), the steady-state infusion study (n = 4), or the brain DHA uptake study (n = 3). For the balance study, the rats were weighed, food intake was determined, and uneaten food was replaced with fresh food on a weekly basis. Rats were euthanized by CO2 asphyxiation. Brains were removed and dissected sagittally. Carcasses and one half brain per rat were stored immediately at −80°C (to be later analyzed for lipid content). The other half brain was flash-frozen with 2-methylbutane on dry ice, and then stored at −80°C until analyzed for mRNA expression. The PUFA content in the brains and bodies of these rats after the 15 week feeding period was compared with the baseline PUFA content (described above) to determine PUFA accretion (equation 1, described below). For the steady-state infusion study and the brain DHA uptake study, a jugular vein catheter was surgically implanted into the rats. After allowing a 24 h recovery, rats were infused with ^2H14-ALA or ^14C-DHA, respectively (described below). The ^2H14-ALA infusion was used to determine DHA synthesis rates following a previously published method ([24]) and the ^14C-DHA infusion was utilized to measure the brain DHA uptake rate by following previously published methods ([26]).

15-lipoxygenase = assay: Brain gene expression (TLDA qPCR); settings: 15 wk diet; control diet = 1
Experimental: (§1) RNA was extracted from the flash-frozen half brains of the 15 week postweaning rats. The brain was briefly thawed and dissected to isolate the brainstem, cerebellum, cortex, hippocampus, striatum, and the rest of the brain. RNA was extracted from the brain regions using Trizol reagent (Ambion; Life Technologies, Burlington, ON, Canada) according to the manufacturer's protocol. […] Chloroform was added to the Trizol reagent at a ratio of 1:5 (chloroform:Trizol reagent) and the solution was mixed and incubated at room temperature. The solution was then centrifuged at 12,000 g for 15 min at 4°C. […] The samples were then centrifuged at 12,000 g for 10 min at 4°C to precipitate the RNA pellet. […] The pellet was allowed to air dry, and was then dissolved in RNase-free water. A Nanodrop 1000 (NanoDrop Technologies Inc., Wilmington, DE) was used to determine the concentration and purity of each sample by measuring absorbance at 260 and 280 nm. Each sample was aliquoted to make 1 μg of RNA per 10 μl of sample and stored at -80°C. A high-capacity cDNA reverse transcription kit (Applied Biosystems, Burlington, ON, Canada) was used to reverse transcribe 1 μg of RNA according to the manufacturer's instructions. Newly synthesized cDNA was stored at -20°C until the following day when it was loaded onto TaqMan low density array (TLDA) plates. Quantitative real-time PCR was performed using TLDA (Applied Biosystems) on the 7900HT real-time PCR system (Applied Biosystems). cDNA (50 ng) was diluted with water to make a volume of 50 μl and mixed with 50 μl of TaqMan Universal PCR Master Mix (Applied Biosystems). The mixture was then loaded onto a customized preconfigured 384-well TLDA plate according to the manufacturer's protocol. TaqMan gene expression assays were used to assess 21 genes that were previously reported to be differentially expressed with n-3 deprivation. […] All genes were normalized to phosphoglycerate kinase 1. Similar results were found when normalizing to β-actin or 18S rRNA.

COX-2 = assay: Brain gene expression (TLDA qPCR); settings: 15 wk diet; control diet = 1
Experimental: as §1

PPARg = assay: Brain gene expression (TLDA qPCR); settings: 15 wk diet; control diet = 1
Experimental: as §1

TNF-α receptor member 1a = assay: Brain gene expression (TLDA qPCR); settings: 15 wk diet; control diet = 1
Experimental: as §1

[2] = system: epidermal growth factor receptor; assay: Brain gene expression (TLDA qPCR); settings: 15 wk diet; control diet = 1
Experimental: as §1

heme oxygenase 1 = assay: Brain gene expression (TLDA qPCR); settings: 15 wk diet; control diet = 1
Experimental: as §1

[3] = system: prostaglandin E synthase 3; assay: Brain gene expression (TLDA qPCR); settings: 15 wk diet; control diet = 1
Experimental: as §1

retinoic acid receptor α = assay: Brain gene expression (TLDA qPCR); settings: 15 wk diet; control diet = 1
Experimental: as §1

retnoid X receptor α = assay: Brain gene expression (TLDA qPCR); settings: 15 wk diet; control diet = 1
Experimental: as §1

uncoupling protein 2 = assay: Brain gene expression (TLDA qPCR); settings: 15 wk diet; control diet = 1
Experimental: as §1

[4] = system: vesicular monoamine transporter 2; assay: Brain gene expression (TLDA qPCR); settings: 15 wk diet; control diet = 1
Experimental: as §1

α-synuclein = assay: Brain gene expression (TLDA qPCR); settings: 15 wk diet; control diet = 1
Experimental: as §1

β-actin = assay: Brain gene expression (TLDA qPCR); settings: 15 wk diet; control diet = 1
Experimental: as §1

## CC/C=C\C/C=C\C/C=C\CCCCCCCC(=O)O [ALA, α-linolenic acid]
[1]
  Mean body weight at 15 weeks: 673 ± 25 g
15-lipoxygenase
  Brainstem gene expression: 15 LOX: 0.91 RQ
  Cerebellum gene expression: 15 LOX: 0.63 RQ
  Cortex gene expression: 15 LOX: 0.77 RQ
  Hippocampus gene expression: 15 LOX: 0.74 RQ
  Rest of brain gene expression: 15 LOX: 0.62 RQ
  Striatum gene expression: 15 LOX: 1.00 RQ
COX-2
  Brainstem gene expression: COX 2: 0.87 RQ
  Cerebellum gene expression: COX 2: 1.46 RQ
  Cortex gene expression: COX 2: 1.17 RQ
  Hippocampus gene expression: COX 2: 1.15 RQ
  Rest of brain gene expression: COX 2: 0.92 RQ
  Striatum gene expression: COX 2: 1.04 RQ
PPARg
  Brainstem gene expression: PPARg: 0.91 RQ
  Cerebellum gene expression: PPARg: 1.17 RQ
  Cortex gene expression: PPARg: 1.21 RQ
  Hippocampus gene expression: PPARγ: 0.47 RQ
  Rest of brain gene expression: PPARg: 1.18 RQ
  Striatum gene expression: PPARg: 0.90 RQ
TNF-α receptor member 1a
  Brainstem gene expression: TNFaR1a: 1.30 RQ
  Cerebellum gene expression: TNFaR1a: 1.12 RQ
  Cortex gene expression: TNFaR1a: 1.11 RQ
  Hippocampus gene expression: TNFa R 1a: 1.14 RQ
  Rest of brain gene expression: TNFaR1a: 0.95 RQ
  Striatum gene expression: TNFaR1a: 0.98 RQ
[2]
  Brainstem gene expression: EGFR: 1.05 RQ
  Cerebellum gene expression: EGFR: 1.26 RQ
  Cortex gene expression: EGFR: 0.94 RQ
  Hippocampus gene expression: EGFR: 1.10 RQ
  Rest of brain gene expression: EGFR: 1.06 RQ
  Striatum gene expression: EGFR: 1.00 RQ
Heme oxygenase 1
  Brainstem gene expression: HO1: 1.01 RQ
  Cerebellum gene expression: HO1: 1.21 RQ
  Cortex gene expression: HO1: 1.05 RQ
  Hippocampus gene expression: HO1: 1.01 RQ
  Rest of brain gene expression: HO1: 1.00 RQ
  Striatum gene expression: HO1: 1.09 RQ
[3]
  Brainstem gene expression: PGES3: 1.14 RQ
  Cerebellum gene expression: PGES3: 1.09 RQ
  Cortex gene expression: PGES3: 0.91 RQ
  Hippocampus gene expression: PGES3: 1.00 RQ
  Rest of brain gene expression: PGES3: 0.99 RQ
  Striatum gene expression: PGES3: 0.95 RQ
Retinoic acid receptor α
  Brainstem gene expression: RARa: 1.00 RQ
  Cerebellum gene expression: RARa: 1.07 RQ
  Cortex gene expression: RAR a: 1.03 RQ
  Hippocampus gene expression: RAR a: 0.96 RQ
  Rest of brain gene expression: RAR a: 0.91 RQ
  Striatum gene expression: RARa: 0.93 RQ
Retnoid X receptor α
  Brainstem gene expression: RXRa: 0.99 RQ
  Cerebellum gene expression: RXRa: 1.15 RQ
  Cortex gene expression: RXR a: 1.02 RQ
  Hippocampus gene expression: RXR a: 1.08 RQ
  Rest of brain gene expression: RXR a: 1.05 RQ
  Striatum gene expression: RXRa: 1.14 RQ
Uncoupling protein 2
  Brainstem gene expression: UCP2: 1.05 RQ
  Cerebellum gene expression: UCP2: 1.17 RQ
  Cortex gene expression: UCP2: 1.04 RQ
  Hippocampus gene expression: UCP2: 1.26 RQ
  Rest of brain gene expression: UCP2: 0.97 RQ
  Striatum gene expression: UCP2: 1.09 RQ
[4]
  Brainstem gene expression: VMAT2: 1.34 RQ
  Hippocampus gene expression: VMAT 2: 0.84 RQ
  Rest of brain gene expression: VMAT2: 1.12 RQ
α-synuclein
  Brainstem gene expression: SNCa: 0.95 RQ
  Cerebellum gene expression: SNCa: 0.96 RQ
  Cortex gene expression: SNCa: 1.08 RQ
  Hippocampus gene expression: SNCa: 1.10 RQ
  Rest of brain gene expression: SNCa: 0.97 RQ
  Striatum gene expression: SNCa: 1.05 RQ
β-actin
  Brainstem gene expression: b-actin: 1.11 RQ
  Cerebellum gene expression: b actin: 1.10 RQ
  Cortex gene expression: b actin: 1.05 RQ
  Hippocampus gene expression: B-actin: 1.13 RQ
  Rest of brain gene expression: b actin: 1.00 RQ
  Striatum gene expression: b actin: 1.04 RQ

## CC/C=C\C/C=C\C/C=C\C/C=C\C/C=C\C/C=C\CCC(=O)O [DHA, Docosahexaenoic acid]
[1]
  Mean body weight at 15 weeks: 724 ± 18 g
15-lipoxygenase
  Brainstem gene expression: 15 LOX: 1.68 RQ
  Cerebellum gene expression: 15 LOX: 1.35 RQ
  Cortex gene expression: 15 LOX: 1.04 RQ
  Hippocampus gene expression: 15 LOX: 0.96 RQ
  Rest of brain gene expression: 15 LOX: 1.07 RQ
  Striatum gene expression: 15 LOX: 1.46 RQ
COX-2
  Brainstem gene expression: COX 2: 3.34 RQ
  Cerebellum gene expression: COX 2: 1.41 RQ
  Cortex gene expression: COX 2: 1.29 RQ
  Hippocampus gene expression: COX 2: 1.12 RQ
  Rest of brain gene expression: COX 2: 1.21 RQ
  Striatum gene expression: COX 2: 0.75 RQ
PPARg
  Brainstem gene expression: PPARg: 1.11 RQ
  Cerebellum gene expression: PPARg: 1.07 RQ
  Cortex gene expression: PPARg: 1.36 RQ
  Hippocampus gene expression: PPARγ: 0.47 RQ
  Rest of brain gene expression: PPARg: 1.14 RQ
  Striatum gene expression: PPARg: 0.83 RQ
TNF-α receptor member 1a
  Brainstem gene expression: TNFaR1a: 1.21 RQ
  Cerebellum gene expression: TNFaR1a: 0.96 RQ
  Cortex gene expression: TNFaR1a: 1.10 RQ
  Hippocampus gene expression: TNFa R 1a: 0.99 RQ
  Rest of brain gene expression: TNFaR1a: 1.06 RQ
  Striatum gene expression: TNFaR1a: 0.88 RQ
[2]
  Brainstem gene expression: EGFR: 1.14 RQ
  Cerebellum gene expression: EGFR: 0.96 RQ
  Cortex gene expression: EGFR: 0.99 RQ
  Hippocampus gene expression: EGFR: 1.04 RQ
  Rest of brain gene expression: EGFR: 1.08 RQ
  Striatum gene expression: EGFR: 0.82 RQ
Heme oxygenase 1
  Brainstem gene expression: HO1: 0.99 RQ
  Cerebellum gene expression: HO1: 0.99 RQ
  Cortex gene expression: HO1: 1.11 RQ
  Hippocampus gene expression: HO1: 1.03 RQ
  Rest of brain gene expression: HO1: 1.04 RQ
  Striatum gene expression: HO1: 0.94 RQ
[3]
  Brainstem gene expression: PGES3: 1.10 RQ
  Cerebellum gene expression: PGES3: 0.97 RQ
  Cortex gene expression: PGES3: 1.07 RQ
  Hippocampus gene expression: PGES3: 1.11 RQ
  Rest of brain gene expression: PGES3: 1.14 RQ
  Striatum gene expression: PGES3: 0.92 RQ
Retinoic acid receptor α
  Brainstem gene expression: RARa: 1.52 RQ
  Cerebellum gene expression: RARa: 1.08 RQ
  Cortex gene expression: RAR a: 1.20 RQ
  Hippocampus gene expression: RAR a: 0.97 RQ
  Rest of brain gene expression: RAR a: 1.09 RQ
  Striatum gene expression: RARa: 0.93 RQ
Retnoid X receptor α
  Brainstem gene expression: RXRa: 1.02 RQ
  Cerebellum gene expression: RXRa: 0.98 RQ
  Cortex gene expression: RXR a: 1.03 RQ
  Hippocampus gene expression: RXR a: 1.10 RQ
  Rest of brain gene expression: RXR a: 1.17 RQ
  Striatum gene expression: RXRa: 1.02 RQ
Uncoupling protein 2
  Brainstem gene expression: UCP2: 1.08 RQ
  Cerebellum gene expression: UCP2: 0.87 RQ
  Cortex gene expression: UCP2: 1.02 RQ
  Hippocampus gene expression: UCP2: 1.07 RQ
  Rest of brain gene expression: UCP2: 1.20 RQ
  Striatum gene expression: UCP2: 1.00 RQ
[4]
  Brainstem gene expression: VMAT2: 9.94 RQ
  Hippocampus gene expression: VMAT 2: 1.26 RQ
  Rest of brain gene expression: VMAT2: 1.08 RQ
α-synuclein
  Brainstem gene expression: SNCa: 2.25 RQ
  Cerebellum gene expression: SNCa: 0.84 RQ
  Cortex gene expression: SNCa: 1.15 RQ
  Hippocampus gene expression: SNCa: 1.19 RQ
  Rest of brain gene expression: SNCa: 1.09 RQ
  Striatum gene expression: SNCa: 0.97 RQ
β-actin
  Brainstem gene expression: b-actin: 1.10 RQ
  Cerebellum gene expression: b actin: 0.98 RQ
  Cortex gene expression: b actin: 1.05 RQ
  Hippocampus gene expression: B-actin: 1.12 RQ
  Rest of brain gene expression: b actin: 1.08 RQ
  Striatum gene expression: b actin: 0.92 RQ
